Like-named read-outs stand apart in the source and are kept apart here.
Target: Endothelial lipase (EL) (Homo sapiens (Human), UniProt Q9Y5X9)
Assay: Endothelial lipase (EL) enzymatic assay with fluorescent substrate A10070 in DMPG vesicles
Format: biochemical
Description: Endothelial lipase (EL) and hepatic lipase (HL) activities were measured using a fluorescent substrate, A10070, (Invitrogen, CA) doped into an artificial vesicle containing DMPG (Avanti Polar Lipids) as the excipient. Vesicles were prepared by combining 571 μL of 29 mM DMPG in a 1:1 mixture of MeOH and CHCl3 with 2000 μL of 1 mM A10070 in a 1:1 mixture of MeOH and CHCl3. The mixture was dried under nitrogen in multiple vials then resuspended in 20 mL total volume of 50 mM HEPES pH 8.0 buffer containing 50 mM NaCl and 0.2 mM EDTA. The sample was allowed to sit at room temperature for 15 min and then was sonicated 3×4 mins on ice with a Branson Sonicator using duty cycle 1. This preparation provides vesicles with a mole fraction of 0.11 for the FRET substrate.
The enzymatic assay was measured using 384-well white Optiplates. Each well contained 20 μL of assay buffer (50 mM HEPES pH 8.0, 50 mM NaCl and 1 mM CaCl2) and 0.25 μL of a DMSO solution containing a compound of interest. EL or HL (10 μL) was added and allowed to incubate with the compound for 30 min at 37° C. The source of EL was conditioned media obtained from HT-1080 cells that were transformed using RAGE technology (Athersys) to overexpress endogenous EL, and HL was partially purified from conditioned media obtained from COS cells overexpressing HL. The reaction was started by the addition of 10 μL of a 1:10 dilution of vesicles. The final total reaction volume was […]. The reaction rates were measured on a Gemini plate reader with an excitation wavelength of 490 nm and an emission wavelength of 530 nm. Readings were taken over a period of 60 minutes, and the slope between 300 and 900 secs of the readout was used to calculate the rate of the reaction.

Endothelial lipase (EL), sequence (Q9Y5X9 21-500): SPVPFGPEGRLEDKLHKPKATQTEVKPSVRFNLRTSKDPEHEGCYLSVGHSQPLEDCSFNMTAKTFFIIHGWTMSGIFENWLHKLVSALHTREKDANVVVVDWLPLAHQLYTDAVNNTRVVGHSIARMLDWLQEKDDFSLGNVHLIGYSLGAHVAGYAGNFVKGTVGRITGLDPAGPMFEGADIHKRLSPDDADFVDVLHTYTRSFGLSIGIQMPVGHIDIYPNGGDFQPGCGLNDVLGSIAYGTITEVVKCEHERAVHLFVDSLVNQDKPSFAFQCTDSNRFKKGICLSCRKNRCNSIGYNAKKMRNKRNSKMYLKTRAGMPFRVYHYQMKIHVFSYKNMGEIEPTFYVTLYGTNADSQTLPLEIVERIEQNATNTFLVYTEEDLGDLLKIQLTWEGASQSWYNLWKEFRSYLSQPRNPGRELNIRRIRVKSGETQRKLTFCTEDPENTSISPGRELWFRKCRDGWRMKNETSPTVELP

SMILES	IC50	IC50 (EL from conditioned media of HT-1080 cells, 30 min preincubation at 37° C.)
CC(C)S(=O)(=O)C(C(=O)NCC(=O)NC1CC1)c1nc2cc(F)c(-c3ccc4c(c3)CNC4=O)cc2s1 (stereo not shown) [Example 236, N-[(cyclopropyl-carbamoyl)methyl]-2-[5-fluoro-6-(1-oxo-2,3-dihydro-1H-isoindol-5-yl)-1,3-benzothiazol-2-yl]-2-(propane-2-sulfonyl) acetamide]	16 nM	–
O=C(CNC(=O)C(c1nc2cc(F)c(-c3ccc(=O)n(Cc4ccccc4)c3)cc2s1)S(=O)(=O)CCC(F)(F)F)NC1CC1 (stereo not shown) [Example 592, 2-[6-(1-benzyl-6-oxo-1,6-dihydropyridin-3-yl)-5-fluoro-1,3-benzothiazol-2-yl]-N-[(cyclopropyl-carbamoyl)methyl]-2-(3,3,3-trifluoropropane-sulfonyl)acetamide]	5 nM	–
CS(=O)(=O)C(C(=O)NCC(=O)NC1CC1)c1nc2ccc(-c3ccc(C(=O)NCC(F)(F)F)cc3)cc2s1 (stereo not shown) [Example 103, 4-[2-({[(cyclopropyl-carbamoyl)methyl]carbamoyl} (methanesulfonyl)methyl)-1,3-benzothiazol-6-yl]-N-(2,2,2-trifluoroethyl) benzamide]	20 nM	–
CC(C)S(=O)(=O)C(C(=O)NCC(=O)NC1CC1)c1nc2cc(F)c(-c3ccc4c(=O)n(C)ccc4c3)cc2s1 (stereo not shown) [Example 242, N-[(cyclopropyl-carbamoyl)methyl]-2-[5-fluoro-6-(2-methyl-1-oxo-1,2-dihydro-isoquinolin-6-yl)-1,3-benzothiazol-2-yl]-2-(propane-2-sulfonyl) acetamide]	4 nM	–
COCCS(=O)(=O)C(C(=O)NCC(=O)NC1CC1)c1nc2cc(-c3ccc(NC(=O)OC)cc3)ccc2s1 (stereo not shown) [Example 104, methyl N-{4-[2-({[(cyclopropyl-carbamoyl)methyl]carbamoyl}(2-methoxyethane-sulfonyl)methyl)-1,3-benzothiazol-5-yl]phenyl} carbamate]	28 nM	–
COCCS(=O)(=O)C(C(=O)NCC(=O)NC1CC1)c1nc2cc(-c3ccnc(C)c3)ccc2s1 (stereo not shown) [Example 70, N-[(cyclopropyl-carbamoyl)methyl]-2-(2-methoxyethane-sulfonyl)-2-[5-(2-methylpyridin-4-yl)-1,3-benzothiazol-2-yl]acetamide]	24 nM	–
O=C(CNC(=O)C(c1nc2cc(F)c(-c3ccc(C(=O)NCCc4ccccc4)cc3)cc2s1)S(=O)(=O)CCC(F)(F)F)NC1CC1 (stereo not shown) [Example 572, 4-[2-({[(Cyclopropylcarbamoyl)methyl]carbamoyl}(3,3,3-trifluoropropanesulfonyl)methyl)-5-fluoro-1,3-benzothiazol-6-yl]-N-(2-phenylethyl)benzamide]	–	2.8 nM
COCCS(=O)(=O)C(C(=O)NCC(=O)NC1CC1)c1nc2ccc(-c3cnnc(C)c3)cc2s1 (stereo not shown) [Example 292, N-[(cyclopropyl-carbamoyl)methyl]-2-(2-methoxyethane-sulfonyl)-2-[6-(6-methylpyridazin-4-yl)-1,3-benzothiazol-2-yl]acetamide]	31 nM	–
Cc1nc2cc(-c3cc4sc(C(C(=O)NCC(=O)NC5CC5)S(C)(=O)=O)nc4cc3F)ccc2s1 (stereo not shown) [Example 248, N-[(cyclopropyl-carbamoyl)methyl]-2-[5-fluoro-6-(2-methyl-1,3-benzothiazol-5-yl)-1,3-benzothiazol-2-yl]-2-methanesulfonyl-acetamide]	1 nM	–
COCCS(=O)(=O)C(C(=O)NCC(=O)NC1CC1)c1nc2ccc(-c3cccnc3Cl)cc2s1 (stereo not shown) [Example 297, 2-[6-(2-chloropyridin-3-yl)-1,3-benzothiazol-2-yl]-N-2-(2-methoxyethane-sulfonyl)acetamide]	85 nM	–
COCCS(=O)(=O)C(C(=O)NCC(=O)NC1CC1)c1nc2cc(F)c(-c3ccc4cnn(C)c4c3)cc2s1 (stereo not shown) [Example 198, N-[(cyclopropyl-carbamoyl)methyl]-2-[5-fluoro-6-(1-methyl-1H-indazol-6-yl)-1,3-benzothiazol-2-yl]-2-(2-methoxyethane-sulfonyl) acetamide]	5 nM	–
O=C(CNC(=O)C(c1nc2cc(F)c(-c3ccc(NC(=O)OCc4ccccc4)cc3)cc2s1)S(=O)(=O)CC1CCCCC1)NC1CC1 (stereo not shown) [Example 54, benzyl N-(4-{2-[cyclohexyl-methanesulfonyl ({[(cyclopropyl-carbamoyl)methyl]carbamoyl})methyl]-5-fluoro-1,3-benzothiazol-6-yl}phenyl) carbamate]	1 nM	–
COCCS(=O)(=O)C(C(=O)NCC(=O)NC1CC1)c1nc2cc(F)c(-c3ccc(-c4noc(=O)[nH]4)cc3)cc2s1 (stereo not shown) [Example 286, N-[(cyclopropyl-carbamoyl)methyl]-2-{5-fluoro-6-[4-(5-oxo-4,5-dihydro-1,2,4-oxadiazol-3-yl)phenyl]-1,3-benzothiazol-2-yl}-2-(2-methoxyethane-sulfonyl)acetamide]	8 nM	–
CS(=O)(=O)C(C(=O)NCC(=O)NC1CC1)c1nc2cc(F)c(-c3cccc(C(N)=O)c3)cc2s1 (stereo not shown) [Example 327, 3-[2-({[(cyclopropyl-carbamoyl)methyl]carbamoyl} (methanesulfonyl)methyl)-5-fluoro-1,3-benzothiazol-6-yl]benzamide]	19 nM	–
COCCS(=O)(=O)C(C(=O)NCC(=O)NC1CC1)c1nc2ccc(-c3ccc(NC(=O)OC)cc3C)cc2s1 (stereo not shown) [Example 30, methyl N-{4-[2-({[(cyclopropy-lcarbamoyl)methyl]carbamoyl}(2-methoxyethane-sulfonyl)methyl)-1,3-benzothiazol-6-yl]-3-methylphenyl} carbamate]	21 nM	–
CS(=O)(=O)C(C(=O)NCC(=O)NC1CC1)c1nc2cc(F)c(-c3ccc(NC(N)=O)cc3)cc2s1 (stereo not shown) [Example 3, 2-{6-[4-(carbamoyl-amino)phenyl]-5-fluoro-1,3-benzothiazol-2-yl}-N-[(cyclopropyl-carbamoyl)methyl]-2-methanesulfonyl-acetamide]	3 nM	–
O=C1Cc2ccc(-c3ccc4nc(C(C(=O)NCC(=O)NC5CC5)S(=O)(=O)c5ccc(F)cc5)sc4c3)cc2N1 (stereo not shown) [Example 453, N-[(cyclopropyl-carbamoyl)methyl]-2-(4-fluorobenzene-sulfonyl)-2-[6-(2-oxo-2,3-dihydro-1H-indol-6-yl)-1,3-benzothiazol-2-yl]acetamide]	67 nM	–
CC(C)S(=O)(=O)C(C(=O)NCC(=O)NC1CC1)c1nc2cc(-c3ccc4c(c3)CC(=O)N4)c(F)cc2s1 (stereo not shown) [Example 266, N-[(cyclopropyl-carbamoyl)methyl]-2-[6-fluoro-5-(2-oxo-2,3-dihydro-1H-indol-5-yl)-1,3-benzothiazol-2-yl]-2-(propane-2-sulfonyl)acetamide]	38 nM	–
COCCS(=O)(=O)C(C(=O)NCC(=O)NC1CC1)c1nc2cc(Cl)c(-c3ccc(F)nc3)cc2s1 (stereo not shown) [Example 105, 2-[5-chloro-6-(6-fluoropyridin-3-yl)-1,3-benzothiazol-2-yl]-N-[(cyclopropyl-carbamoyl)methyl]-2-(2-methoxyethane-sulfonyl)acetamide]	28 nM	–
COc1cc(-c2ccc3nc(C(C(=O)NCC(=O)NC4CC4)S(=O)(=O)c4ccc(F)cc4)sc3c2)ccn1 (stereo not shown) [Example 454, N-[(cyclopropyl-carbamoyl)methyl]-2-(4-fluorobenzene-sulfonyl)-2-[6-(2-methoxypyridin-4-yl)-1,3-benzothiazol-2-yl]acetamide]	73 nM	–
CC1(O)CN(C(=O)c2ccc(-c3cc4sc(C(C(=O)NCC(=O)NC5CC5)S(=O)(=O)CCC(F)(F)F)nc4cc3F)cc2)C1 (stereo not shown) [Example 564, N-[(cyclopropyl-carbamoyl)methyl]-2-{5-fluoro-6-[4-(3-hydroxy-3-methylazetidine-1-carbonyl)phenyl]-1,3-benzothiazol-2-yl}-2-[3,3,3-trifluoropropane-sulfonyl)acetamide]	5 nM	–
COCCS(=O)(=O)C(C(=O)NCC(=O)NC1CC1)c1nc2ccc(-c3cnn(CC(C)(C)O)c3)cc2s1 (stereo not shown) [Example 110, N-[(cyclopropyl-carbamoyl)methyl]-2-{6-[1-(2-hydroxy-2-methylpropyl)-1H-pyrazol-4-yl]-1,3-enzothiazol-2-yl}-2-(2-methoxyethane-sulfonyl) acetamide]	31 nM	–
O=C(CNC(=O)C(c1nc2cc(-c3ccc(F)nc3)ccc2s1)S(=O)(=O)Cc1ccc(F)cc1)NC1CC1 (stereo not shown) [Example 13, N-[(cyclopropyl-carbamoyl)methyl]-2-[(4-fluorophenyl)methanesulfonyl]-2-[5-(6-fluoropyridin-3-yl)-1,3-benzothiazol-2-yl]acetamide]	15 nM	–
COCCS(=O)(=O)C(C(=O)NCC(=O)NC1CC1)c1nc2c(F)cc(-c3ccc(C(F)(F)F)nc3)cc2s1 (stereo not shown) [Example 217, N-[(cyclopropyl-carbamoyl)methyl]-2-{4-fluoro-6-[6-(trifluoromethyl)pyridin-3-yl]-1,3-benzothiazol-2-yl}-2-(2-methoxyethane-sulfonyl) acetamide]	26 nM	–
CC(C)S(=O)(=O)C(C(=O)NCC(=O)NC1CC1)c1nc2cc(F)c(-c3cnc(=O)[nH]c3)cc2s1 (stereo not shown) [Example 232, N-[(cyclopropyl-carbamoyl)methyl]-2-[5-fluoro-6-(2-oxo-1,2-dihydropyrimidin-5-yl)-1,3-benzothiazol-2-yl]-2-(propane-2-sulfonyl) acetamide]	122 nM	–
